Assay results reported in patent US20180333538A1, “INJECTION APPARATUS” (Daicel Corporation, priority 2015, published 2018).
Read-outs that look alike come from different tables or passages of the source.

Tested on: intradermal layer which is skin tissue of the rabbit in vivo
Conditions: 100 μl intradermal
Experimental: Moreover, an object of the following experimental conditions is to confirm, when an inflammatory substance is injected to the intradermal layer which is skin tissue of the rabbit in vivo, a presence or absence of an inflammatory response (formation of erythema and eschar, and formation of edema) for each elapsed time (after 24 hours, 48 hours, and 72 hours) . In addition, the injection of an injection solution with the needled injector was performed at a constant pressurization rate.
16-week-old male Std: JW/CSK rabbit, already shaved and smooth skin-verified, was used.
An aqueous solution of the following inflammatory substance was used as the dosing liquid and the injection solution.
Inflammatory substance: acetic acid, diluted to a predetermined concentration with distilled water, dose 100 μl
Definitions of numerical values representing the experimental results in the tables with respect to each of erythema and eschar formation and edema formation are as follows.
1 Very slight erythema (barely perceptible erythema)
2 Slight erythema (clearly perceptible erythema)
3 Moderate to severe erythema
4 Severe erythema to eschar formations
1 Very slight edema (barely perceptible edema)
2 Slight edema (edema with edges perceptible due to definite raising)
3 Moderate edema (raised approximately 1 mm)
4 Severe edema (raised 1 mm or more and extending beyond the area of exposure)

[1] = Comparative example (needled injector), acetic acid 0.25%, 24 h
[2] = Comparative example (needled injector), acetic acid 0.25%, 48 h
[3] = Comparative example (needled injector), acetic acid 0.25%, 72 h
[4] = Comparative example (needled injector), acetic acid 0.5%, 24 h
[5] = Comparative example (needled injector), acetic acid 0.5%, 48 h
[6] = Comparative example (needled injector), acetic acid 0.5%, 72 h
[7] = Comparative example (needled injector), acetic acid 1.0%, 24 h
[8] = Comparative example (needled injector), acetic acid 1.0%, 48 h
[9] = Comparative example (needled injector), acetic acid 1.0%, 72 h
[10] = Comparative example (needled injector), acetic acid 1.5%, 24 h
[11] = Comparative example (needled injector), acetic acid 1.5%, 48 h
[12] = Comparative example (needled injector), acetic acid 1.5%, 72 h
[13] = Comparative example (needled injector), acetic acid 2.0%, 24 h
[14] = Comparative example (needled injector), acetic acid 2.0%, 48 h
[15] = Comparative example (needled injector), acetic acid 2.0%, 72 h
[16] = Injector 1, acetic acid 0.25%, 24 h
[17] = Injector 1, acetic acid 0.25%, 48 h
[18] = Injector 1, acetic acid 0.25%, 72 h
[19] = Injector 1, acetic acid 0.5%, 24 h
[20] = Injector 1, acetic acid 0.5%, 48 h
[21] = Injector 1, acetic acid 0.5%, 72 h
[22] = Injector 1, acetic acid 1.0%, 24 h
[23] = Injector 1, acetic acid 1.0%, 48 h
[24] = Injector 1, acetic acid 1.0%, 72 h
[25] = Injector 1, acetic acid 1.5%, 24 h
[26] = Injector 1, acetic acid 1.5%, 48 h
[27] = Injector 1, acetic acid 1.5%, 72 h
[28] = Injector 1, acetic acid 2.0%, 24 h
[29] = Injector 1, acetic acid 2.0%, 48 h
[30] = Injector 1, acetic acid 2.0%, 72 h

CC(=O)O [Acetic acid, acetic acid]
Edema [1]: 0 | Erythema etc. [1]: 1 | Edema [2]: 0 | Erythema etc. [2]: 1 | Edema [3]: 0 | Erythema etc. [3]: 1 | Edema [4]: 0 | Erythema etc. [4]: 1 | Edema [5]: 0 | Erythema etc. [5]: 1 | Edema [6]: 0 | Erythema etc. [6]: 1 | Edema [7]: 1 | Erythema etc. [7]: 1 | Edema [8]: 1 | Erythema etc. [8]: 1 | Edema [9]: 1 | Erythema etc. [9]: 1 | Edema [10]: 2 | Erythema etc. [10]: 1 | Edema [11]: 2 | Erythema etc. [11]: 1 | Edema [12]: 2 | Erythema etc. [12]: 1 | Edema [13]: 3 | Erythema etc. [13]: 1 | Edema [14]: 3 | Erythema etc. [14]: 1 | Edema [15]: 2 | Erythema etc. [15]: 1 | Edema [16]: 0 | Erythema etc. [16]: 1 | Edema [17]: 0 | Erythema etc. [17]: 1 | Edema [18]: 0 | Erythema etc. [18]: 1 | Edema [19]: 0 | Erythema etc. [19]: 1 | Edema [20]: 0 | Erythema etc. [20]: 1 | Edema [21]: 0 | Erythema etc. [21]: 1 | Edema [22]: 0 | Erythema etc. [22]: 1 | Edema [23]: 0 | Erythema etc. [23]: 1 | Edema [24]: 0 | Erythema etc. [24]: 1 | Edema [25]: 0 | Erythema etc. [25]: 1 | Edema [26]: 0 | Erythema etc. [26]: 1 | Edema [27]: 0 | Erythema etc. [27]: 1 | Edema [28]: 1 | Erythema etc. [28]: 1 | Edema [29]: 1 | Erythema etc. [29]: 1 | Edema [30]: 1 | Erythema etc. [30]: 1
